Values of other authors as cited in US20200069618A1, “COMPOSITIONS HAVING AN AGENT AND AN ENHANCER THEREOF, METHODS OF USE, AND DELIVERY SYSTEMS” (priority 2018, published 2020).

How the values were obtained:
[1] = tested on: rats; conditions: intercerebroventricular administration
[2] = tested on: rats; conditions: administration into the basal forebrain

For CCCCC/C=C\C/C=C\C/C=C\C/C=C\CCCC(=O)NCCO [anandamide, Anandamide], the “slow-wave sleep and REM sleep” value [1] is listed as “increase slow-wave sleep and REM sleep”, the wakefulness [1] is listed as “decrease wakefulness” and the levels of adenosine [2] is listed as “increase levels of adenosine”.
